The assay deals with MMP-13. In words: MMP-13 Production Inhibition Test. The conditions noted are these: SW1353 cells stimulated with IL-1β 10 ng/mL, MMP-13 in culture supernatant by ELISA 16 hours after stimulation; for inhibition at 30 µM: Homo sapiens, 30 μmol/L, read-out: Inhibition rate (%) at 30 μmol/L. In kind it is cell-based, human. Here is the method: MMP-13 Production Inhibition Test
6.8×10^3 human cartilage derived cell line SW1353 cells were suspended in 100 μL of Dulbecco modified Eagle's medium supplemented with 10% fetal calf serum, plated on 96-well plates and cultured for 3 days. After the culture medium was changed to Dulbecco modified Eagle's medium containing 0.2% lactalbumin hydrolysate and the cells were cultured for 6 hours, […] were added and then IL-1β was added to obtain the final concentration of 10 ng/mL 1 hour later. 16 hours after the stimulation, supernatant was collected and the amount of MMP-13 in the culture supernatant was determined with an ELISA kit (Amersham). The inhibition rate was calculated from the amount of MMP-13 in the presence of a test compound assuming that the amount of MMP-13 was 100% in the absence of the test compound.

From patent publication US7999132B2, “Anthranilic acid derivative or salt thereof” (Toyama Chemical Co., Ltd., priority 2004, dated 2011) come the findings set out here.

Structures are written as SMILES.

For the compound `O=C(Nc1cc(-c2cccc(OC(F)(F)F)c2)ccc1C(=O)O)c1ccccc1` [Example 234, 2-(Benzamido)-4-(3-(trifluoromethoxy)phenyl)benzoic acid], the inhibition at 30 µM was 99%.

As to `CC(=O)c1cccc(C(=O)Nc2cc(Oc3ccccc3)ccc2C(=O)O)c1` [Example 505, 2-(3-Acetylbenzamido)-4-phenoxybenzoic acid], the inhibition at 30 µM worked out at 82%.

For `O=C(Nc1cc(-c2cc(Cl)ccc2Cl)ccc1C(=O)O)c1ccccc1` [Example 425, 2-(Benzamido)-4-(2,5-dichlorophenyl)benzoic acid], the inhibition at 30 µM turned out to be 99%.

Consider `Cc1cccc(C(=O)Nc2cc(-c3ccc(F)cc3F)ccc2C(=O)O)c1C` [Example 189, 4-(2,4-difluorophenyl)-2-(2,3-dimethylbenzamido)benzoic acid], for which the inhibition at 30 µM was determined as 96%.

`O=C(Nc1cc(-c2ccccc2)ccc1C(=O)O)c1ccc(F)c(F)c1` [Example 450, 2-(3,4-Difluorobenzamido)-4-phenylbenzoic acid]: the inhibition at 30 µM amounted to 98%.

Take `O=C(Nc1cc(Oc2ccc(F)cc2)ccc1C(=O)O)c1ccccc1` [Example 560, 2-(Benzamido)-4-(4-fluorophenoxy)benzoic acid]: the inhibition at 30 µM came to 85%.

Take `Cc1ccc(-c2ccc(C(=O)O)c(NC(=O)c3ccccc3)c2)cc1` [Example 240]: the “Inhibition rate (%) at 30 μmol/L” value worked out at 94%.

For `O=C(O)c1ccc(-c2ccccc2)cc1NC(=O)c1ccc(C(F)(F)F)cc1C(F)(F)F` [Example 318, 4-Phenyl-2-(2,4-bis(trifluoromethyl)benzamido)benzoic acid], the inhibition at 30 µM came out at 95%.

Take `O=C(Nc1cc(Oc2cccc(Cl)c2)ccc1C(=O)O)c1ccccc1` [Example 551, 2-(benzamido)-4-(3-chlorophenoxy)benzoic acid]: the inhibition at 30 µM amounted to 86%.

For the compound `O=C(C=Cc1ccccc1)Nc1cc(Oc2ccccc2)ccc1C(=O)O` [Example 91, 2-(Cinnamamido)-4-phenoxybenzoic acid], the inhibition at 30 µM amounted to 95%.

On to `O=C(Nc1cc(-c2c(F)cccc2F)ccc1C(=O)O)c1ccccc1` [Example 217, 2-(Benzamido)-4-(2,6-difluorophenyl)benzoic acid], for which the inhibition at 30 µM amounted to 68%.

With `O=C(Nc1cc(-c2ccc(O)cc2)ccc1C(=O)O)c1ccc(C(F)(F)F)cc1` [Example 176, 4-(4-Hydroxyphenyl)-2-(4-(trifluoromethyl)benzamido)benzoic acid], the inhibition at 30 µM was 98%.

Turning to `O=C(Nc1cc(Oc2ccccc2)ccc1C(=O)O)c1nc2ccccc2s1` [Example 97, 2-(Benzothiazole-2-carboxamido)-4-phenoxybenzoic acid], the inhibition at 30 µM was found to be 97%.

In the case of `COc1cccc(/C=C/c2ccc(C(=O)O)c(NC(=O)c3ccc4c(c3)OCO4)c2)c1` [Example 157, 2-(Benzo[1,3]dioxole-5-carboxamido)-4-((E)-2-(3-methoxyphenyl)vinyl)benzoic acid], the inhibition at 30 µM is 98%.

On to `O=C(Nc1cc(-c2ccc3c(c2)OCCO3)ccc1C(=O)O)c1ccccc1` [Example 15, 2-(Benzamido)-4-(2,3-dihydrobenzo[1,4]dioxin-6-yl)benzoic acid], for which the inhibition at 30 µM is 88%.

As for `O=C(Nc1cc(/C=C/c2ccccc2)ccc1C(=O)O)c1ccccc1` [Example 24, 2-(benzamido)-4-((E)-2-phenylvinyl)benzoic acid], the inhibition at 30 µM worked out at 92%.

With `Cc1cccc(Oc2ccc(C(=O)O)c(NC(=O)c3ccccc3)c2)c1C` [Example 541, 2-(Benzamido)-4-(2,3-dimethylphenoxy)benzoic acid], the inhibition at 30 µM was 97%.

As for `O=C(Nc1cc(Oc2ccccc2)ccc1C(=O)O)c1cccc(-c2ccccc2)c1` [Example 503, 2-(Biphenyl-3-carboxamido)-4-phenoxybenzoic acid], the inhibition at 30 µM amounted to 99%.

`COc1ccc(-c2ccc(C(=O)O)c(NC(=O)c3ccccc3)c2)cc1Cl` [Example 423, 2-(Benzamido)-4-(3-chloro-4-methoxyphenyl)benzoic acid]: the inhibition at 30 µM is 98%.

For the compound `O=C(Nc1cc(-c2ccccc2)ccc1C(=O)O)c1ccc(O)cc1` [Example 399, 2-(4-Hydroxybenzamido)-4-phenylbenzoic acid], the inhibition at 30 µM turned out to be 79%.

Regarding `O=C(Nc1cc(Oc2cc(F)cc(F)c2)ccc1C(=O)O)c1ccccc1` [Example 539, 2-(benzamido)-4-(3,5-difluorophenoxy)benzoic acid], the inhibition at 30 µM is 97%.

For `O=C(Nc1cc(-c2cccc(Cl)c2)ccc1C(=O)O)c1ccc2c(c1)OCO2` [Example 163, 2-(Benzo[1,3]dioxole-5-carboxamido)-4-(3-chlorophenyl)benzoic acid], the inhibition at 30 µM came to 98%.

On to `O=C(Nc1cc(CCc2ccccc2)ccc1C(=O)O)c1ccc(Cl)c(Cl)c1` [Example 431, 2-(3,4-Dichlorobenzamido)-4-phenethylbenzoic acid], for which the inhibition at 30 µM was determined as 98%.

In the case of `O=C(Nc1cc(Oc2ccc(C(F)(F)F)cc2)ccc1C(=O)O)c1ccccc1` [Example 570, 2-(Benzamido)-4-(4-(trifluoromethyl)phenoxy)benzoic acid], the inhibition at 30 µM came to 98%.

Take `O=C(Nc1cc(-c2ccccc2)ccc1C(=O)O)c1ccc(-n2cccc2)nc1` [Example 509, 4-Phenyl-2-(6-(1H-pyrrol-1-yl)pyridine-3-carboxamido) benzoic acid]: the inhibition at 30 µM stood at 77%.

As for `O=C(Nc1cc(Oc2ccccc2)ccc1C(=O)O)c1ccc(F)cc1` [Example 89, 2-(4-Fluorobenzamido)-4-phenoxybenzoic acid], the inhibition at 30 µM was found to be 94%.

`O=C(Nc1cc(-c2ccccc2)ccc1C(=O)O)c1cccs1` [Example 301, 4-Phenyl-2-(thiophene-2-carboxamido)benzoic acid]: the inhibition at 30 µM came to 80%.

With `Cc1cccc(C(=O)Nc2cc(Oc3ccccc3)ccc2C(=O)O)c1` [Example 325, 2-(3-Methylbenzamido)-4-phenoxybenzoic acid], the inhibition at 30 µM came to 91%.

In the case of `O=C(Nc1cc(CCc2ccccc2)ccc1C(=O)O)c1cncc(-n2cccc2)c1` [Example 276, 4-Phenethyl-2-(5-(1H-pyrrol-1-yl)pyridine-3-carboxamido)benzoic acid], the inhibition at 30 µM amounted to 86%.

As to `COc1ccc(-c2ccc(C(=O)O)c(NC(=O)c3ccccc3)c2)cc1` [Example 22, 2-(Benzamido)-4-(4-methoxyphenyl)benzoic acid], the inhibition at 30 µM worked out at 81%.

`O=C(Nc1cc(-c2ccccc2)ccc1C(=O)O)c1ccccc1` [Example 4, 2-(benzamido)-4-phenylbenzoic acid]: the inhibition at 30 µM is 80%.

As for `O=C(Nc1cc(Oc2ccccc2)ccc1C(=O)O)c1ccc(-n2cccc2)cc1` [Example 495, 4-phenoxy-2-(4-(1H-pyrrol-1-yl)benzamido)benzoic acid], the inhibition at 30 µM was 99%.

On to `O=C(Nc1cc(CCCCc2ccccc2)ccc1C(=O)O)c1ccccc1` [Example 33, 2-(benzamido)-4-(4-phenylbutyl)benzoic acid], for which the inhibition at 30 µM was 97%.

Regarding `Cc1cccc(-c2ccc(C(=O)O)c(NC(=O)c3ccccc3)c2)c1C` [Example 230, 2-(Benzamido)-4-(2,3-dimethylphenyl)benzoic acid], the inhibition at 30 µM was 95%.

On to `O=C(Nc1cc(/C=C/c2cccc(Cl)c2)ccc1C(=O)O)c1ccccc1` [Example 134, 2-(Benzamido)-4-((E)-2-(3-chlorophenyl)vinyl)benzoic acid], for which the inhibition at 30 µM worked out at 99%.

On to `O=C(O)c1ccc(CCc2ccccc2)cc1NC(=O)c1ccccc1C(F)(F)F` [Example 255, 4-Phenethyl-2-(2-(trifluoromethyl)benzamido)benzoic acid], for which the inhibition at 30 µM was determined as 91%.

For `O=C(Nc1cc(-c2ccc(O)cc2)ccc1C(=O)O)c1ccccc1` [Example 243, 2-(benzamido)-4-(4-hydroxyphenyl)benzoic acid], the inhibition at 30 µM was 96%.

Take `O=C(Nc1cc(-c2c(F)cccc2Cl)ccc1C(=O)O)c1ccccc1` [Example 251, 2-(benzamido)-4-(2-chloro-6-fluorophenyl)benzoic acid]: the inhibition at 30 µM worked out at 83%.

With `O=C(/C=C/c1cccc(Cl)c1)Nc1cc(-c2ccccc2)ccc1C(=O)O` [Example 358, 2-((E)-3-(3-Chlorophenyl)acrylamido)-4-phenylbenzoic acid], the inhibition at 30 µM worked out at 99%.

As to `Cc1cccc(C(=O)Nc2cc(CCc3ccccc3)ccc2C(=O)O)c1C` [Example 262, 2-(2,3-Dimethylbenzamido)-4-phenethylbenzoic acid], the inhibition at 30 µM turned out to be 93%.

For `O=C(Nc1cc(-c2ccccc2)ccc1C(=O)O)c1cc(-c2ccccc2)ncn1` [Example 349, 4-Phenyl-2-(6-phenylpyrimidine-4-carboxamido)benzoic acid], the inhibition at 30 µM stood at 95%.

Consider `O=C(Nc1cc(-c2cccc(Cl)c2)ccc1C(=O)O)c1ccc(O)cc1` [Example 196, 4-(3-chlorophenyl)-2-(4-hydroxybenzamido)benzoic acid], for which the inhibition at 30 µM was 97%.

With `O=C(Nc1cc(-c2ccccc2)ccc1C(=O)O)c1ccc(Cl)cc1` [Example 316, 2-(4-Chlorobenzamido)-4-phenylbenzoic acid], the inhibition at 30 µM turned out to be 96%.

In the case of `COc1ccc(-c2ccc(C(=O)O)c(NC(=O)c3ccccc3)c2)cc1OC` [Example 411, 2-(Benzamido)-4-(3,4-dimethoxyphenyl)benzoic acid], the inhibition at 30 µM was 81%.
